pIC50: −log10 of the molar value.
Biological target: protein phosphatase-1 catalytic subunit beta (PPP1CB) (Homo sapiens, UniProt P62140)
Assay: DiFMUP fluorescence phosphatase assay, dose-response
Format: biochemical

Chain of protein phosphatase-1 catalytic subunit beta (PPP1CB) (P62140 1-266): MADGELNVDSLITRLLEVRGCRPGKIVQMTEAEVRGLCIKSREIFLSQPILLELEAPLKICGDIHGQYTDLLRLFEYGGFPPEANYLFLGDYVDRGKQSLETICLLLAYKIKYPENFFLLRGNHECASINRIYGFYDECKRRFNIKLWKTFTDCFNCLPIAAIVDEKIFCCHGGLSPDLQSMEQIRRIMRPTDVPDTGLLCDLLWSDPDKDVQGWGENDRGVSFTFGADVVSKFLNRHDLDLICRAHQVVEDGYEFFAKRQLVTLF

Compound: O=C(O)C[C@@H]1C(=O)O[C@H]2[C@H](OC(=O)c3cc(O)c(O)c(O)c3)[C@@H](OC(=O)c3cc(O)c(O)c4c3[C@H]1[C@H](O)C(=O)O4)[C@H](OC(=O)c1cc(O)c(O)c(O)c1)O[C@@H]2COC(=O)c1cc(O)c(O)c(O)c1 [compound 147, chebulinic acid]
- pIC50: 6.52

Reference: PMC8775935, “Chebulinic Acid Suppresses Adipogenesis in 3T3-L1 Preadipocytes by Inhibiting PPP1CB Activity” (International Journal of Molecular Sciences, 2022)
